Test [1] deals with group I PAKs in EBC1 cells (MEK1 phosphorylation at S298). In words: Cellular PAK IC50 Assay: MEK1 phosphorylation at S298 by HTRF. In kind it is cell-based. To be noted: Homo sapiens, EBC-1, 2 h treatment, media containing 0.1% FBS, phospho-MEK1 (S298) HTRF. The procedure: Cellular PAK IC50 Assay Protocol
Group I PAKs (PAK1-3) are activated upon binding to the Rho GTPases, Rac1 and Cdc42. Activated group I PAKs phosphorylate MEK1 at Serine 298 (S298), one of the two sites in the catalytic domain that is important for stable association between Raf and MEK1 and subsequent MAPK activation. The inhibition of group I PAKs in EBC1 cells is assessed by detecting changes in the level of MEK1 phosphorylation at S298 using homogenous time-resolved fluorescence (HTRF). Inhibitory activity was estimated by treating 2×10^4 EBC1 cells for 2 h with PAK inhibitors in media containing 0.1% FBS. Following inhibitor treatment, cells were lysed with 25 μL of 1× cellular kinase lysis buffer (Cisbio) containing 1× cellular kinase blocking reagent (Cisbio). Cellular lysis was carried out at 4° C. for 2 h with constant shaking before lysate (16 μL) was transferred to white 384-well ProxiPlates™ (Perkin Elmer). Anti-total MEK1 antibody labeled with Europium cryptate donor (1 ng/well) (Cell Signaling Technologies catalog number 2352) and anti-phospho MEK1 (S298) antibody labeled with d2 acceptor (Cell Signaling Technologies catalog number 9128) (10 ng/well) were prepared in 1× detection buffer (CisBio) and added to each well of the assay plate and allowed to incubate at RT overnight. The following day the fluorescence emission from each well was measured in EnVision® (Perkin Elmer) at an excitation of 330 nm and dual emission wavelengths of 615 nm and 665 nm. The signal in each well at 665 nm was multiplied by 10,000 and divided by the signal in the same well at 615 nm to obtain a ratio. Ratio values ([665·10,000]÷615) were plotted as a function of the concentration of compound to determine IC50 values.
Background: In TR-FRET formats the signal depends on donor and acceptor labels being close together.

The target of test [2] is human recombinant PAK1-KD protein (Homo sapiens, UniProt Q13153). The experiment in a line: PAK1-KD (Kinase Domain) IC50 Zlyte Assay (FRET peptide substrate phosphorylation). Particulars: Z'-LYTE, Biological Example 1.
Chain of human recombinant PAK1-KD protein (Q13153 270-521 limits assumed): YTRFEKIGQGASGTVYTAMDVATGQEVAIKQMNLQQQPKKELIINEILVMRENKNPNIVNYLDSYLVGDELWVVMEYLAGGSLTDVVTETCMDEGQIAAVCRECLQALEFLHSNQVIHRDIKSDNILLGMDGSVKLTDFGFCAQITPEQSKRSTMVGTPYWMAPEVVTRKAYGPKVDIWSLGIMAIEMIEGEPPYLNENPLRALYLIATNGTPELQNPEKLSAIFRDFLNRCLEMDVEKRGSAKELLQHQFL
Description: PAK1-KD (Kinase Domain) IC50 Zlyte Assay Protocol
Activity of human recombinant PAK1-KD protein may be assessed in vitro by assay of the phosphorylation of a FRET peptide substrate. Catalytically active human recombinant PAK1-KD protein is obtained by purification from Tini cells infected with a human PAK1-KD recombinant baculovirus expression vector.
The activity/inhibition of PAK1-KD was estimated by measuring the phosphorylation of a FRET peptide substrate (Ser/Thr19) labeled with Coumarin and Fluorescein using Z′-LYTE™ assay (Invitrogen). The peptide substrate is a consensus sequence ([sequence]) based on various PAK substrates reported in the scientific literature. […] Incubations were carried out at 22° C. in black polypropylene 384-well plates (Corning Costar).

Broadly, the IC50 is the concentration needed to halve the response being measured. A word on the Ki: it is the dissociation constant of the complex between target and ligand, obtained from inhibition or displacement.

With `CCNc1ncc2cc(-c3ccc(-c4cncc(C)n4)cc3Cl)c(=O)n(CCOCCN)c2n1` [Example I-12, 8-(2-(2-Aminoethoxy)ethyl)-6-(2-chloro-4-(6-methylpyrazin-2-yl)phenyl)-2-(ethylamino)pyrido[2,3-d]pyrimidin-7(8H)-one], half-maximal inhibition in test [1] (IC50) required 0.131 µM. For the same compound, the Ki in test [2] turned out to be 0.0043 µM.

For `Cc1cccc(-c2ccc(-c3cc4cnc(NC5COC5)nc4n(CCOCCN)c3=O)c(C)c2)n1` [Example I-108, 8-[2-(2-aminoethoxy)ethyl]-6-[2-methyl-4-(6-methyl-2-pyridyl)phenyl]-2-(oxetan-3-ylamino)pyrido[2,3-d]pyrimidin-7-one], half-maximal inhibition in test [1] (IC50) was put at 0.0835 µM. Moreover, the Ki in test [2] is 0.0025 µM.

With `CCNc1ncc2cc(-c3ccc(-c4cncc(C)n4)cc3Cl)c(=O)n(CCC3CCCN3)c2n1` (single isomer, unassigned) [Example I-19], the IC50 in test [1] is 0.286 µM. In addition, the Ki in test [2] amounted to 0.0268 µM.

Turning to `CCNc1ncc2cc(-c3ccc(-c4cncc(C)n4)cc3Cl)c(=O)n(CCCC(N)=O)c2n1` [Example I-3, 4-[6-[2-Chloro-4-(6-methylpyrazin-2-yl)phenyl]-2-(ethylamino)-7-oxo-pyrido[2,3-d]pyrimidin-8-yl]butanamide], in test [1], the IC50 turned out to be 0.506 µM. The Ki in test [2] came to 0.0474 µM.

For the compound `CCNc1ncc2cc(-c3ccc(-c4cccc(C)n4)cc3C)c(=O)n(CCCC(N)=O)c2n1` [Example I-70, 4-[2-(Ethylamino)-6-[2-methyl-4-(6-methyl-2-pyridyl)phenyl]-7-oxo-pyrido[2,3-d]pyrimidin-8-yl]butanamide], half-maximal inhibition in test [1] (IC50) required 0.289 µM. Further, in test [2], the inhibitory constant (Ki) is 0.0174 µM.

As for `Cc1cncc(-c2ccc(-c3cc4cnc(N)nc4n(CC4OCC(N)CO4)c3=O)c(Cl)c2)n1` (centres unmarked) [Example I-56, 2-Amino-8-[((2s,5s)-5-amino-1,3-dioxan-2-yl)methyl]-6-[2-chloro-4-(6-methylpyrazin-2-yl)phenyl]pyrido[2,3-d]pyrimidin-7-one and 2-amino-8-[((2r,5r)-5-amino-1,3-dioxan-2-yl)methyl]-6-[2-chloro-4-(6-methylpyrazin-2-yl)phenyl]pyrido[2,3-d]pyrimidin-7-one], it took 0.426 µM to reach half-maximal inhibition in test [1] (IC50). Further, the Ki in test [2] is 0.0186 µM.

Regarding `CCNc1ncc2cc(-c3ccc(-c4ncccc4C)cc3Cl)c(=O)n(C[C@H]3CC[C@H](N)CC3)c2n1` [Example I-16, 8-(((1r,4r)-4-Aminocyclohexyl)methyl)-6-(2-chloro-4-(3-methylpyridin-2-yl)phenyl)-2-(ethylamino)pyrido[2,3-d]pyrimidin-7(8H)-one], half-maximal inhibition in test [1] (IC50) was put at 0.0756 µM. The Ki in test [2] was determined as 0.0072 µM.

Compound `CCNc1ncc2cc(-c3ccc(-c4cccc(C)n4)cc3Cl)c(=O)n(CC3CCNCC3)c2n1` [Example I-44, 6-(2-Chloro-4-(6-methylpyridin-2-yl)phenyl)-2-(ethylamino)-8-(piperidin-4-ylmethyl)pyrido[2,3-d]pyrimidin-7(8H)-one] yielded an IC50 in test [1] of 0.0723 µM. The Ki in test [2] was 0.0046 µM.

In test [1], `CCNc1ncc2cc(-c3ccc(-c4cncc(C)n4)cc3Cl)c(=O)n(CCOC3CCCNC3)c2n1` (centres unmarked) [Example I-14, 6-(2-Chloro-4-(6-methylpyrazin-2-yl)phenyl)-2-(ethylamino)-8-(2-(piperidin-3-yloxy)ethyl)pyrido[2,3-d]pyrimidin-7(8H)-one] gave an IC50 of 0.246 µM. Moreover, the Ki in test [2] was 0.0148 µM.

For `CCNc1ncc2cc(-c3ccc(-c4cncc(C)n4)cc3Cl)c(=O)n(CCOC3CNC3)c2n1` [Example I-11, 8-(2-(Azetidin-3-yloxy)ethyl)-6-(2-chloro-4-(6-methylpyrazin-2-yl)phenyl)-2-(ethylamino)pyrido[2,3-d]pyrimidin-7(8H)-one], the IC50 in test [1] was 0.189 µM. Also, the Ki in test [2] was 0.00694 µM.
